The assay has as its target T1, HCV polymerase (Hepatitis C virus genotype 1b, UniProt P26663).
T1 construct: a region encoding NS5B (J Virol 1991 March, 65(3), 1105-13, 544 amino acids after deletion of 47 amino acids on the C-terminal); 6xHis (C); made in house; host or cells: Escherichia coli
Put plainly: biochemical. More on the design: species or system HCV BK strain. The method, boiled down:
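His-tagged NS5B (BK strain, 47-aa C-terminal deletion, E. coli-expressed) at 0.5 μg/ml copied 5 μg/ml run-off RNA bearing the HCV 3′ UTR with 2 μM UTP plus [3H]UTP, 50 μM ATP/GTP, in pH 7.5 Tris with 5 mM MgCl2, 25 °C, 90 min. TCA-precipitated RNA was counted and IC50 calculated.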

The structures appear in SMILES notation. Structures can show the parent of a compound that is named as a salt. Where two headings read alike, the source gives them in different places. Where only a bound is given, the exact number is not on record here.

T1 sequence (P26663 2420-2963): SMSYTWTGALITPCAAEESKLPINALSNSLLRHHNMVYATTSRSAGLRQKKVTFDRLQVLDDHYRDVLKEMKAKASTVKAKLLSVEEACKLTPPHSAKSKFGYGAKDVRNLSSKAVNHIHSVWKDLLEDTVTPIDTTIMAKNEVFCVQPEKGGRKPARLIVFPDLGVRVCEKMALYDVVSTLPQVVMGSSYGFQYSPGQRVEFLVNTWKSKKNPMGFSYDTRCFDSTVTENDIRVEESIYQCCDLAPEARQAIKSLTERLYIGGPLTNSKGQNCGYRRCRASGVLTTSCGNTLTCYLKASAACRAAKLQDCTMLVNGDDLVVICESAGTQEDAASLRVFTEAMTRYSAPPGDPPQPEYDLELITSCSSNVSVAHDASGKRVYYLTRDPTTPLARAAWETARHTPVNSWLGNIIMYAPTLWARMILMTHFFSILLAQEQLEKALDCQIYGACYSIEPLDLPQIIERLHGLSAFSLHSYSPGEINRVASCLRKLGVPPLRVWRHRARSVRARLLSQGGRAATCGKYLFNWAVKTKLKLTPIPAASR

`CN(C)C1CCN(CCN2CCn3c(c(C4CCCCC4)c4ccc(C(=O)O)cc43)-c3ccccc32)CC1` [Example 1-44, 13-cyclohexyl-5-[2-(4-dimethylaminopiperidin-1-yl)ethyl]-6,7-dihydro-5H-benzo[5,6][1,4]diazepino[7,1-a]indole-10-carboxylic acid trihydrochloride] had an IC50 below 100 nM.

For `CNC(=O)[C@H](Cc1ccc(O)cc1)NC(=O)c1ccc2c(C3CCCCC3)c3n(c2c1)CCOc1ccccc1-3` [Example 2-245, [(S)-2-(4-hydroxyphenyl)-1-(methylcarbamoyl)ethyl]-12-cyclohexyl-6,7-dihydro-5-oxa-7a-azadibenzo[a,e]azulene-9-carboxamide], the IC50 (25° C., 90 min, [5,6-3H]UTP incorporation into RNA, read-out: HCV polymerase inhibitory activity IC50) is below 100 nM.

`CC1CCN(CCN2CCn3c(c(C4CCCCC4)c4ccc(C(=O)O)cc43)-c3ccc(Cl)cc32)CC1` [Example 1-215, 3-chloro-13-cyclohexyl-5-[2-(4-methylpiperidin-1-yl)ethyl]-6,7-dihydro-5H-benzo[5,6][1,4]diazepino[7,1-a]indole-10-carboxylic acid dihydrochloride]: the IC50 was below 100 nM.

The compound `CN1CCC(CCOc2cccc3c2OCCn2c-3c(C3CCCCC3)c3ccc(C(=O)O)cc32)CC1` [Example 2-459, 12-cyclohexyl-4-[2-(1-methylpiperidin-4-yl)ethoxy]-6,7-dihydro-5-oxa-7a-azadibenzo[a,e]azulene-9-carboxylic acid monohydrochloride] showed an IC50 below 100 nM.

Compound `O=C(O)c1ccc2c(C3CCCCC3)c3n(c2c1)CCN(CCNC12CC4CC(CC(C4)C1)C2)c1ccccc1-3` [Example 1-196, 5-[2-(adamantan-1-ylamino)ethyl]-13-cyclohexyl-6,7-dihydro-5H-benzo[5,6][1,4]diazepino[7,1-a]indole-10-carboxylic acid dihydrochloride] returned an IC50 below 100 nM.

Take `COc1ccc2c(c1)OCCn1c-2c(C2CCCCC2)c2ccc(C(=O)NC(C)(C)c3nc4ccccc4n3CCN3CCOCC3)cc21` [Example 2-432, N-(1-methyl-1-{1-[2-(morpholin-4-yl)ethyl]-1H-benzimidazol-2-yl}ethyl)-12-cyclohexyl-3-methoxy-6,7-dihydro-5-oxa-7a-azadibenzo[a,e]azulene-9-carboxamide]: the IC50 was below 100 nM.

Compound `O=C(O)c1ccc2c(C3CCCCC3)c3n(c2c1)CCN(CCN1CCCCC1)c1cc(OCc2ccccn2)ccc1-3` [Example 1-595, 13-cyclohexyl-5-[2-(piperidin-1-yl)ethyl]-3-(pyridin-2-ylmethoxy)-6,7-dihydro-5H-benzo[5,6][1,4]diazepino[7,1-a]indole-10-carboxylic acid trihydrochloride] came in with an IC50 below 100 nM.

Compound `COCCN1CCN(C(=O)C(C)(C)NC(=O)c2ccc3c(C4CCCCC4)c4n(c3c2)CCOc2ccccc2-4)CC1` [Example 2-305, N-{2-[4-(2-methoxyethyl)piperazin-1-yl]-1,1-dimethyl-2-oxoethyl}-12-cyclohexyl-6,7-dihydro-5-oxa-7a-azadibenzo[a,e]azulene-9-carboxamide] yielded an IC50 below 100 nM.

The compound `O=C(O)c1ccc2c(C3CCCCC3)c3n(c2c1)CCOc1c(-c2ccccc2CCCN2CCCCC2)cccc1-3` [Example 2-536, 12-cyclohexyl-4-{2-[3-(piperidin-1-yl)propyl]phenyl}-6,7-dihydro-5-oxa-7a-azadibenzo[a,e]azulene-9-carboxylic acid monohydrochloride] registered an IC50 below 100 nM.

In the case of `Cc1nc(C)c(COc2ccc3c(c2)N(CCN2CCCCC2)CCn2c-3c(C3CCCCC3)c3ccc(C(=O)O)cc32)s1` [Example 1-402, 13-cyclohexyl-3-(2,4-dimethylthiazol-5-ylmethoxy)-5-[2-(piperidin-1-yl)ethyl]-6,7-dihydro-5H-benzo[5,6][1,4]diazepino[7,1-a]indole-10-carboxylic acid dihydrochloride], the IC50 was below 100 nM.

For `CN1CCC(OCCN2CCn3c(c(C4CCCCC4)c4ccc(C(=O)O)cc43)-c3ccc(Cl)cc32)CC1` [Example 1-262, 3-chloro-13-cyclohexyl-5-[2-(1-methylpiperidin-4-yloxy)ethyl]-6,7-dihydro-5H-benzo[5,6][1,4]diazepino[7,1-a]indole-10-carboxylic acid dihydrochloride], the IC50 was below 100 nM.

For the compound `COC(=O)N1CCC(N(C)CCN2CCn3c(c(C4CCCCC4)c4ccc(C(=O)O)cc43)-c3ccccc32)C1` (stereo not shown) [Example 1-250, 13-cyclohexyl-5-{2-[N-(1-methoxycarbonylpyrrolidin-3-yl)-N-methylamino]ethyl}-6,7-dihydro-5H-benzo[5,6][1,4]diazepino[7,1-a]indole-10-carboxylic acid monohydrochloride], the 50% inhibitory concentration (IC50) is below 100 nM.

As for `O=C(NC(Cc1c[nH]c2ccc(O)cc12)C(=O)O)c1ccc2c(C3CCCCC3)c3n(c2c1)CCOc1ccccc1-3` (stereo not shown) [Example 2-253], under “read-out: HCV polymerase inhibitory activity IC50, 25° C., 90 min, [5,6-3H]UTP incorporation into RNA”, the IC50 was below 100 nM.

In the case of `COc1ccc2c(c1)OCCn1c-2c(C2CCCCC2)c2ccc(C(=O)NC(C)(C)c3nc4cc(N(C)C)ccc4[nH]3)cc21` [Example 2-367, N-[1-(5-dimethylamino-1H-benzimidazol-2-yl)-1-methylethyl]-12-cyclohexyl-3-methoxy-6,7-dihydro-5-oxa-7a-azadibenzo[a,e]azulene-9-carboxamide], the IC50 was below 100 nM.

As to `CCOc1ccc2c(c1)N(C)CCn1c-2c(C2CCCCC2)c2ccc(C(=O)NC3(C(=O)Nc4ccc(/C=C/C(=O)O)c(OC)c4)CCC3)cc21` [Example 1-622, (E)-3-[4-({1-[(13-cyclohexyl-3-ethoxy-5-methyl-6,7-dihydro-5H-benzo[5,6][1,4]diazepino[7,1-a]indole-10-carbonyl)amino]cyclobutanecarbonyl}amino)-2-methoxyphenyl]acrylic acid], the IC50 was below 100 nM.

Compound `CC(C)(C)OC(=O)N1CCCC(CN2CCn3c(c(C4CCCCC4)c4ccc(C(=O)O)cc43)-c3ccccc32)C1` (stereo not shown) [Example 1-152, 5-(1-tert-butoxycarbonylpiperidin-3-ylmethyl)-13-cyclohexyl-6,7-dihydro-5H-benzo[5,6][1,4]diazepino[7,1-a]indole-10-carboxylic acid] registered an IC50 below 100 nM.

As to `CCN1CCN(CCN2CCn3c(c(C4CCCCC4)c4ccc(C(=O)O)cc43)-c3ccccc32)CC1` [Example 1-38, 13-cyclohexyl-5-[2-(4-ethylpiperazin-1-yl)ethyl]-6,7-dihydro-5H-benzo[5,6][1,4]diazepino[7,1-a]indole-10-carboxylic acid dihydrochloride], the IC50 was below 100 nM.

Compound `CCCc1ccc2c(c1)N(CCN1CCCCC1)CCn1c-2c(C2CCCCC2)c2ccc(C(=O)O)cc21` [Example 1-343, 13-cyclohexyl-5-[2-(piperidin-1-yl)ethyl]-3-propyl-6,7-dihydro-5H-benzo[5,6][1,4]diazepino[7,1-a]indole-10-carboxylic acid dihydrochloride] showed an IC50 below 100 nM.

`COCC[C@@H]1CCCN(CCN2CCn3c(c(C4CCCCC4)c4ccc(C(=O)O)cc43)-c3cc(F)c(F)cc32)C1` [Example 1-544, 13-cyclohexyl-2,3-difluoro-5-{2-[(S)-3-(2-methoxyethyl)piperidin-1-yl]ethyl}-6,7-dihydro-5H-benzo[5,6][1,4]diazepino[7,1-a]indole-10-carboxylic acid dihydrochloride]: the IC50 was below 100 nM.

In general, IC50 refers to the concentration needed to halve the response being measured.

Values taken from patent publication US20070049593A1 (priority 2004, published 2007).
